In patent publication EP1247803A2, “Indolinone compounds suitable for modulation of protein kinases” (Sugen, Inc., priority 1996, dated 1998):

target: T1, FLK-1 receptor (Mus musculus, UniProt P35918); assay: FLK-1 ELISA (kinase activity of the FLK-1 receptor in FLK-1/NIH3T3 cells, VEGF stimulated); format: cell-based
T1 construct: expressed in transfected cells; host or cells: NIH3T3 C7#3
In short: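 An ELISA using affinity-purified rabbit anti-FLK-1 antiserum on anti-rabbit IgG-coated plates measured VEGF-stimulated FLK-1 kinase activity. NIH3T3 C7#3 cells carrying FLK-1 were serum-starved (0.1% FBS) overnight, then exposed to compound (final 1:200 dilution, 0.5% DMSO) for two hours at 37 °C.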

T1 sequence (P35918 20-1345): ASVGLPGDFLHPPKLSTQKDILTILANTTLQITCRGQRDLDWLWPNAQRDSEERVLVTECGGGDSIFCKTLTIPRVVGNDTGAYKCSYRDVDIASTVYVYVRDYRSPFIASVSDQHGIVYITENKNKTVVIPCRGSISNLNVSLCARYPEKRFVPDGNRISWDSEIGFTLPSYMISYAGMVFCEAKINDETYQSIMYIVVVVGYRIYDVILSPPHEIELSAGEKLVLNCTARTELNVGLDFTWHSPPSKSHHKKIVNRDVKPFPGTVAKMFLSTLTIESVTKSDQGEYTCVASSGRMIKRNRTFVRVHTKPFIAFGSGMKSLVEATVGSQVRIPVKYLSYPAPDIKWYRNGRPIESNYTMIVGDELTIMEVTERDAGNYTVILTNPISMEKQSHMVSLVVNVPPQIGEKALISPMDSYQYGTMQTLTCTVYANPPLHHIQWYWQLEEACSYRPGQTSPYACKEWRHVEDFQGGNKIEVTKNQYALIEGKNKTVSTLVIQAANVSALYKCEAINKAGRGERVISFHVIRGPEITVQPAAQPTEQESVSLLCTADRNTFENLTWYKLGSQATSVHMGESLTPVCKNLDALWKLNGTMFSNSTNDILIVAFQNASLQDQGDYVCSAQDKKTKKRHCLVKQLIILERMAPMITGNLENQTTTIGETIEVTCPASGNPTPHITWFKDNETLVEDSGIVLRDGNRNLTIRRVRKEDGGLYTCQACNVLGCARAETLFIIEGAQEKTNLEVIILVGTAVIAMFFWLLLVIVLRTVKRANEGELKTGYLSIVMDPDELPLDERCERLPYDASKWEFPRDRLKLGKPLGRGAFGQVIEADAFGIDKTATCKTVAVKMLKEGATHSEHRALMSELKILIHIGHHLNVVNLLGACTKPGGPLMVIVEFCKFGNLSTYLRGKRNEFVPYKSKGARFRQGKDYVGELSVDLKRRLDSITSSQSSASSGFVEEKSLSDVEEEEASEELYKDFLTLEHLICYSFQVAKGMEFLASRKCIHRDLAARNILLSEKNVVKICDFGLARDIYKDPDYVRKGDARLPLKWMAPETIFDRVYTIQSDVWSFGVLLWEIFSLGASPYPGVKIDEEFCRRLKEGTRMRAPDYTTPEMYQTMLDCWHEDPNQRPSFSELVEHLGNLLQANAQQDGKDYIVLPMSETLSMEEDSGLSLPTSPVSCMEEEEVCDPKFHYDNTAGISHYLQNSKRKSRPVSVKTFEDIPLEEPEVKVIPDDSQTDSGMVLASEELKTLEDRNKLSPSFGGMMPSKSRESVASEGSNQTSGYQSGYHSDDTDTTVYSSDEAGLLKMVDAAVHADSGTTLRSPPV

Row | SMILES | Fik Kinase %Inhibition [%]
1 | O=C1Nc2ccc(S(=O)(=O)N3CCOCC3)cc2C1=Cc1cccc(F)c1O [10734/F08] | 4.8
2 | CC(C)(C)c1ccc(C=C2C(=O)Nc3ccc(S(=O)(=O)Nc4ccc(C(F)(F)F)cc4)cc32)cc1 [10734/E10] | 18.5
3 | O=C1Nc2ccc(S(=O)(=O)N3CCOCC3)cc2C1=Cc1ccc(O)c(Br)c1 [10734/F09] | -3.7
4 | Cc1c(O)ccc(C=C2C(=O)Nc3ccc(CCCl)cc32)c1O [10718/G09] | -12.8
5 | O=C1Nc2c(Br)cc(Br)cc2C1=Cc1ccc(O)cc1 [10719/A07] | 21.3
6 | O=C1Nc2ccc(I)cc2C1=Cc1ccc(F)cc1Cl [10719/B09] | 11.3
7 | CCOc1cccc(C=C2C(=O)Nc3ccc(S(=O)(=O)N4CCOCC4)cc32)c1O [10734/F02] | 6.2
8 | O=C1Nc2ccc(I)cc2C1=Cc1ccc(O)c(O)c1 [10719/B03] | 14.2
9 | O=C1Nc2ccc(I)cc2C1=Cc1ccc(F)cc1C(F)(F)F [10719/B11] | 11.2
10 | O=C1Nc2ccc(S(=O)(=O)Nc3ccc(C(F)(F)F)cc3)cc2C1=Cc1ccc([N+](=O)[O-])cc1 [10734/E06] | 28.4
11 | COc1cc(OC)c(C=C2C(=O)Nc3c(Br)cc(Br)cc32)c(OC)c1 [10719/A06] | 14.0
12 | O=C1Nc2ccc(S(=O)(=O)Nc3ccc(C(F)(F)F)cc3)cc2C1=Cc1ccc(Br)s1 [10734/E11] | 19.2
13 | Cc1c(Br)ccc2c1C(=Cc1ccc(F)cc1Cl)C(=O)N2 [10719/C09] | 23.5
14 | O=C1Nc2ccc(S(=O)(=O)Nc3ccc(C(F)(F)F)cc3)cc2C1=Cc1cc(Br)cc(Br)c1O [10734/E07] | 27.9
15 | O=C1Nc2c(Br)cc(Br)cc2C1=Cc1ccc(O)c(O)c1 [10719/A03] | 3.9
16 | CCOc1ccc(C=C2C(=O)Nc3ccc(I)cc32)cc1OC [10719/B02] | 11.5
17 | CC(C)(C)c1ccc(C=C2C(=O)Nc3ccc(CCCl)cc32)cc1 [10734/G10] | 10.8
18 | O=C1Nc2ccc(S(=O)(=O)N3CCOCC3)cc2C1=Cc1ccco1 [10718/F10] | 17.9
19 | CCOC(=O)c1c(C)[nH]c(C=C2C(=O)Nc3ccc(CCCl)cc32)c1C [10718/G02] | -2.5
20 | CCOC(=O)c1c(C)[nH]c(C=C2C(=O)Nc3ccc(S(=O)(=O)N4CCOCC4)cc32)c1C [10718/F02] | 20.1
21 | COc1cc(OC)c(C=C2C(=O)Nc3ccc(Br)c(C)c32)c(OC)c1 [10719/C06] | 47.7
22 | O=C1Nc2ccc(CCCl)cc2C1=Cc1ccc(O)c(Br)c1 [10734/G09] | 8.5
23 | O=C1Nc2ccc(S(=O)(=O)Nc3ccc(C(F)(F)F)cc3)cc2C1=Cc1cccc(F)c1O [10734/E08] | 26.6
24 | Cc1c(Br)ccc2c1C(=Cc1ccc(O)c(O)c1)C(=O)N2 [10719/C03] | 15.3
25 | O=C1Nc2ccc(S(=O)(=O)N3CCOCC3)cc2C1=Cc1cc(Cl)ccc1O [10734/F04] | -2.6
26 | O=C1Nc2ccc(I)cc2C1=Cc1c[nH]c2ccccc12 [10717/B06] | 5.4
27 | O=C1Nc2c(Br)cc(Br)cc2C1=Cc1cccc([N+](=O)[O-])c1 [10719/A10] | 10.9

Row | SMILES | Fik Kinase %Inhibition [%]
28 | CCOc1ccc(C=C2C(=O)Nc3ccc(Br)c(C)c32)cc1OC [10719/C02] | 4.1
29 | O=C1Nc2ccc(CCCl)cc2C1=Cc1ccc(Cl)c([N+](=O)[O-])c1 [10718/G08] | 6.1
30 | O=C1Nc2ccc(CCCl)cc2C1=Cc1cc(Cl)ccc1O [10734/G04] | -1.1
31 | O=C1Nc2ccc(I)cc2C1=Cc1ccc(F)cc1 [10717/B05] | 1.0
32 | CCc1c(C)[nH]c(C=C2C(=O)Nc3ccc(Br)c(C)c32)c1C [10719/C05] | 25.6
33 | O=C1Nc2ccc(S(=O)(=O)N3CCOCC3)cc2C1=Cc1cc(Br)cc(Br)c1O [10734/F07] | 6.6
34 | O=C1Nc2ccc(S(=O)(=O)N3CCOCC3)cc2C1=Cc1cc(Cl)cc(Cl)c1O [10734/F03] | 4.2
35 | O=C1Nc2ccc(CCCl)cc2C1=Cc1cccc(F)c1O [10734/G08] | 11.6
36 | Cn1cccc1C=C1C(=O)Nc2ccc(I)cc21 [10717/B04] | -18.3
37 | CN(C)c1ccc(C=C2C(=O)Nc3c(Br)cc(Br)cc32)cc1 [10719/A08] | 11.9
38 | CCc1c(C)[nH]c(C=C2C(=O)Nc3ccc(I)cc32)c1C [10719/B05] | 17.7
39 | COc1cc(Br)c(O)c(C=C2C(=O)Nc3ccc(S(=O)(=O)N4CCOCC4)cc32)c1 [10718/F03] | -0.2
40 | O=C1Nc2ccc(S(=O)(=O)Nc3ccc(C(F)(F)F)cc3)cc2C1=Cc1cc(Cl)ccc1O [10734/E04] | 10.7
41 | O=C1Nc2ccc(CCCl)cc2C1=Cc1cc(Br)cc(Br)c1O [10734/G07] | 21.9
42 | Cc1c(Br)ccc2c1C(=Cc1ccc(O)cc1)C(=O)N2 [10719/C07] | 31.2
43 | O=C1Nc2ccc(S(=O)(=O)N3CCOCC3)cc2C1=Cc1ccc([N+](=O)[O-])cc1 [10734/F06] | 11.0
44 | CCOC(=O)c1cc(C=C2C(=O)Nc3ccc(CCCl)cc32)oc1C [10718/G06] | 9.8
45 | COc1ccc(C=C2C(=O)Nc3ccc(I)cc32)c(OC)c1 [10719/B04] | 24.9
46 | COc1cc(OC)c(C=C2C(=O)Nc3ccc(I)cc32)c(OC)c1 [10719/B06] | 21.3
47 | COc1ccc(C=C2C(=O)Nc3c(Br)cc(Br)cc32)c(OC)c1 [10719/A04] | 19.2
48 | CCOC(=O)CCc1c(C(=O)OCC)[nH]c(C=C2C(=O)Nc3ccc(CCCl)cc32)c1CC(=O)OCC [10718/G05] | 3.7
49 | CN(C)c1ccc(C=C2C(=O)Nc3ccc(I)cc32)cc1 [10719/B08] | 4.0
50 | COc1ccc(C=C2C(=O)Nc3ccc(Br)c(C)c32)c(OC)c1 [10719/C04] | 59.9
51 | O=C1Nc2c(Br)cc(Br)cc2C1=Cc1ccc(F)cc1C(F)(F)F [10719/A11] | 7.4
52 | O=C1Nc2ccc(S(=O)(=O)N3CCOCC3)cc2C1=Cc1ccc2ccccc2c1O [10718/F04] | 9.4
53 | O=C1Nc2ccc(I)cc2C1=Cc1ccc(O)cc1 [10719/B07] | 12.5
54 | O=C1Nc2ccc(S(=O)(=O)Nc3ccc(C(F)(F)F)cc3)cc2C1=Cc1ccc(O)c(Br)c1 [10734/E09] | 8.0

Row | SMILES | Fik Kinase %Inhibition [%]
55 | CCN(CC)c1ccc(C=C2C(=O)Nc3ccc(S(=O)(=O)Nc4ccc(C(F)(F)F)cc4)cc32)c(O)c1 [10734/E05] | 10.6
56 | CCOC(=O)CCc1c(C(=O)OCC)[nH]c(C=C2C(=O)Nc3ccc(S(=O)(=O)N4CCOCC4)cc32)c1CC(=O)OCC [10718/F05] | 19.5
57 | O=C1Nc2ccc(S(=O)(=O)N3CCOCC3)cc2C1=Cc1ccc(Cl)c([N+](=O)[O-])c1 [10718/F08] | 15.3
58 | Cc1c(O)ccc(C=C2C(=O)Nc3ccc(S(=O)(=O)N4CCOCC4)cc32)c1O [10718/F09] | -3.0
59 | CCN(CC)c1ccc(C=C2C(=O)Nc3ccc(S(=O)(=O)N4CCOCC4)cc32)c(O)c1 [10734/F05] | 9.8
60 | Cc1c(Br)ccc2c1C(=Cc1ccc(N(C)C)cc1)C(=O)N2 [10719/C08] | 15.0
61 | COC(=O)c1[nH]c(C)c(C=C2C(=O)Nc3ccc(S(=O)(=O)N4CCOCC4)cc32)c1C(=O)OC [10718/F07] | 16.5
62 | O=C1Nc2ccc(CCCl)cc2C1=Cc1ccco1 [10718/G10] | 7.1
63 | CC(C)(C)c1ccc(C=C2C(=O)Nc3ccc(S(=O)(=O)N4CCOCC4)cc32)cc1 [10734/F10] | 14.8
64 | CCOc1ccccc1C=C1C(=O)Nc2ccc(I)cc21 [10717/B02] | 5.0
65 | COc1cc(Br)c(O)c(C=C2C(=O)Nc3ccc(CCCl)cc32)c1 [10718/G03] | -4.7
66 | CCN(CC)c1ccc(C=C2C(=O)Nc3ccc(CCCl)cc32)c(O)c1 [10734/G05] | 7.4
67 | CCOc1ccc(C=C2C(=O)Nc3c(Br)cc(Br)cc32)cc1OC [10719/A02] | 21.4
68 | O=C1Nc2ccc(CCCl)cc2C1=Cc1ccc(Br)s1 [10734/G11] | 8.7
69 | O=C1Nc2ccc(S(=O)(=O)N3CCOCC3)cc2C1=Cc1ccc([N+](=O)[O-])o1 [10718/F11] | 10.1
70 | O=C1Nc2c(Br)cc(Br)cc2C1=Cc1ccc(F)cc1Cl [10719/A09] | 12.3
71 | O=C1Nc2ccc(I)cc2C1=Cc1cccc([N+](=O)[O-])c1 [10719/B10] | 1.1
72 | CCOC(=O)c1cc(C=C2C(=O)Nc3ccc(S(=O)(=O)N4CCOCC4)cc32)oc1C [10718/F06] | 18.3
73 | COC(=O)c1[nH]c(C)c(C=C2C(=O)Nc3ccc(CCCl)cc32)c1C(=O)OC [10718/G07] | 11.4
74 | O=C1Nc2ccc(CCCl)cc2C1=Cc1ccc([N+](=O)[O-])o1 [10718/G11] | 15.6
75 | O=C1Nc2ccc(CCCl)cc2C1=Cc1ccc([N+](=O)[O-])cc1 [10734/G06] | 16.5
76 | O=C1Nc2ccc(CCCl)cc2C1=Cc1ccc2ccccc2c1O [10718/G04] | 1.8
77 | CCc1c(C)[nH]c(C=C2C(=O)Nc3c(Br)cc(Br)cc32)c1C [10719/A05] | 10.0
78 | O=C1Nc2ccc(CCCl)cc2C1=Cc1cc(Cl)cc(Cl)c1O [10734/G03] | 18.7
79 | O=C1Nc2ccc(I)cc2C1=Cc1cccs1 [10717/B03] | -8.8
80 | CCOc1cccc(C=C2C(=O)Nc3ccc(CCCl)cc32)c1O [10734/G02] | 1.5
